The molecules below were run against ROCK2 (human) (UniProt O75116) (assay: Inhibition of ROCK2 Kinase Activity).
ROCK2 (human), sequence (O75116 whole entry, looked up): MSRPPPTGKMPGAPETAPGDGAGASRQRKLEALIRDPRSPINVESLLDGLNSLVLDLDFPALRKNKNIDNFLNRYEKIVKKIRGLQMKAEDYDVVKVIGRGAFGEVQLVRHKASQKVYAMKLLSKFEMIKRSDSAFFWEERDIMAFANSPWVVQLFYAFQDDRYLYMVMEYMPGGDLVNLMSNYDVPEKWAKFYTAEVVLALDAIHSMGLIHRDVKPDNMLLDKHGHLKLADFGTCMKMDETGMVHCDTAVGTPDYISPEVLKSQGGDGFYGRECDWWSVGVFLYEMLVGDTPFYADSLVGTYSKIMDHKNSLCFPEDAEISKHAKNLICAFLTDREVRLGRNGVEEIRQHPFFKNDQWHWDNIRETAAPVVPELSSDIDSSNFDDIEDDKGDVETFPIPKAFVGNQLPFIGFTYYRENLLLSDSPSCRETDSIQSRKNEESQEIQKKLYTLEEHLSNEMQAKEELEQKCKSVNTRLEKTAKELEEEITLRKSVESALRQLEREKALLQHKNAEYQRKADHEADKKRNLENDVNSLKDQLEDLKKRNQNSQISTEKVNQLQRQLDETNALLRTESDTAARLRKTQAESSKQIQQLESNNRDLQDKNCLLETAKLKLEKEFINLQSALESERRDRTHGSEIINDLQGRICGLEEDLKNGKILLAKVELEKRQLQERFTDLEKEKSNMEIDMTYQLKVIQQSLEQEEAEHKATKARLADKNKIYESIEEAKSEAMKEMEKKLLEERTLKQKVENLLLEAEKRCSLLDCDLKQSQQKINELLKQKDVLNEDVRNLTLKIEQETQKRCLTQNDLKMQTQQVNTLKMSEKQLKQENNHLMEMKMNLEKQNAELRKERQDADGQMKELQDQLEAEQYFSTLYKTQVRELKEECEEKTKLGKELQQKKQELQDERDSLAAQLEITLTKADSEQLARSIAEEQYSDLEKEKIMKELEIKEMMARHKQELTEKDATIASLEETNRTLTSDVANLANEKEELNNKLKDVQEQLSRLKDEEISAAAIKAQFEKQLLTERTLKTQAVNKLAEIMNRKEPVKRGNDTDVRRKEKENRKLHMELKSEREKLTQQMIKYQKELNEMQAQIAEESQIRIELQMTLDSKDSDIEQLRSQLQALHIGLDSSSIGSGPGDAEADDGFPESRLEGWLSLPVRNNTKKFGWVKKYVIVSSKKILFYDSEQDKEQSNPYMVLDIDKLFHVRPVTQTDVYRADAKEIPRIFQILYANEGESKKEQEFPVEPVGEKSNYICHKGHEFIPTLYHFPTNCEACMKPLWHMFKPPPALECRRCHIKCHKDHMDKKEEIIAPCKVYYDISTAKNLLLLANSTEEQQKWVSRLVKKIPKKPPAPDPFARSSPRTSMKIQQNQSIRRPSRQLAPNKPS

Compound	IC50
NC(c1ccc(C(=O)Nc2ccncc2)cc1)C1CCCN1S(=O)(=O)c1ccccc1F (configuration not stated)	500 to 5000 nM
CN(C)CCNC(=O)C(N)c1ccc(C(=O)Nc2ccncc2)cc1 (configuration not stated)	500 to 5000 nM
CC1CCC(NC(=O)C(N)c2ccc(C(=O)Nc3ccncc3)cc2)CC1 (configuration not stated)	500 to 5000 nM
NC(CNS(=O)(=O)c1cccc(Oc2ccccc2)c1)c1ccc(C(=O)Nc2ccncc2)cc1 (configuration not stated)	500 to 5000 nM
CN(CC(N)c1ccc(C(=O)Nc2ccncc2)cc1)S(=O)(=O)c1ccccc1 (configuration not stated)	500 to 5000 nM
NC(C(=O)NCCn1cccn1)c1ccc(C(=O)Nc2ccncc2)cc1 (configuration not stated)	500 to 5000 nM
NC(C(=O)NCc1ccncc1)c1ccc(C(=O)Nc2ccncc2)cc1 (configuration not stated)	500 to 5000 nM
NC(C(=O)N1CCC(c2ccccc2)CC1)c1ccc(C(=O)Nc2ccncc2)cc1 (configuration not stated)	500 to 5000 nM
CN(CC(N)c1ccc(C(=O)Nc2ccncc2)cc1)S(=O)(=O)c1cccc(F)c1 (configuration not stated)	500 to 5000 nM
NC(C(=O)NCC1CC1)c1ccc(C(=O)Nc2ccncc2)cc1 (configuration not stated)	500 to 5000 nM
Cc1nn(C)c(Cl)c1S(=O)(=O)NCC(N)c1ccc(C(=O)Nc2ccncc2)cc1 (configuration not stated)	500 to 5000 nM
NC(C(=O)NC1CCCCC1)c1ccc(C(=O)Nc2ccncc2)cc1 (configuration not stated)	500 to 5000 nM
COc1ccccc1CNC(=O)C(N)c1ccc(C(=O)Nc2ccncc2)cc1 (configuration not stated)	< 500 nM
CN(CC(N)c1ccc(C(=O)Nc2ccncc2)cc1)S(=O)(=O)c1ccccc1Cl (configuration not stated)	500 to 5000 nM
NC(c1ccc(C(=O)Nc2ccncc2)cc1)C1CCCN1S(=O)(=O)c1ccc(F)cc1 (configuration not stated)	500 to 5000 nM
NC(CNS(=O)(=O)c1ccc(-c2ccccc2)cc1)c1ccc(C(=O)Nc2ccncc2)cc1 (configuration not stated)	500 to 5000 nM

Compound	IC50
NC(C(=O)NCCc1ccccc1)c1ccc(C(=O)Nc2ccncc2)cc1 (configuration not stated)	< 500 nM
NC(CNS(=O)(=O)Cc1ccccc1)c1ccc(C(=O)Nc2ccncc2)cc1 (configuration not stated)	< 500 nM
NC(c1ccc(C(=O)Nc2ccncc2)cc1)C1CCCN1S(=O)(=O)c1cccc(Cl)c1 (configuration not stated)	500 to 5000 nM
NC(CC(=O)N1CCN(C(=O)c2ccco2)CC1)c1ccc(C(=O)Nc2ccncc2)cc1 (configuration not stated)	< 500 nM
NC(C(=O)N1CCCC1c1cccc(F)c1)c1ccc(C(=O)Nc2ccncc2)cc1 (configuration not stated)	< 500 nM
NC(C(=O)N1CCC(Cc2ccccc2)CC1)c1ccc(C(=O)Nc2ccncc2)cc1 (configuration not stated)	500 to 5000 nM
COc1ccc(S(=O)(=O)NCC(N)c2ccc(C(=O)Nc3ccncc3)cc2)cc1 (configuration not stated)	< 500 nM
NC(CC(=O)N1CCc2ccc(Cl)cc2C1)c1ccc(C(=O)Nc2ccncc2)cc1 (configuration not stated)	< 500 nM
NC(CC(=O)N1CCc2c(Cl)cccc2C1)c1ccc(C(=O)Nc2ccncc2)cc1 (configuration not stated)	< 500 nM
NC(C(=O)N1CCN(CCO)CC1)c1ccc(C(=O)Nc2ccncc2)cc1 (configuration not stated)	500 to 5000 nM
NC(C(=O)NCc1ccccn1)c1ccc(C(=O)Nc2ccncc2)cc1 (configuration not stated)	500 to 5000 nM
CC1CC(C)CN(C(=O)C(N)c2ccc(C(=O)Nc3ccncc3)cc2)C1 (configuration not stated)	< 500 nM
NC(CC(=O)N1CCc2c([nH]c3ccccc23)C1)c1ccc(C(=O)Nc2ccncc2)cc1 (configuration not stated)	< 500 nM
NC(C(=O)NCc1ccccc1Cl)c1ccc(C(=O)Nc2ccncc2)cc1 (configuration not stated)	< 500 nM
Cc1ccccc1S(=O)(=O)NCC(N)c1ccc(C(=O)Nc2ccncc2)cc1 (configuration not stated)	< 500 nM

Now from value to molecule:

IC50	Compound
< 500 nM	NC(CC(=O)N1CCCC1c1cccc(Cl)c1)c1ccc(C(=O)Nc2ccncc2)cc1 (configuration not stated)
< 500 nM	CCC(NC(=O)C(N)c1ccc(C(=O)Nc2ccncc2)cc1)c1ccccc1 (configuration not stated)
< 500 nM	NC(CC(=O)N1CCCC(CO)C1)c1ccc(C(=O)Nc2ccncc2)cc1 (configuration not stated)
< 500 nM	NC(CC(=O)N1CCCC1c1cccc(F)c1)c1ccc(C(=O)Nc2ccncc2)cc1 (configuration not stated)
< 500 nM	COc1ccc(S(=O)(=O)N(C)C[C@@H](N)c2ccc(C(=O)Nc3ccncc3)cc2)cc1
< 500 nM	NC(CC(=O)N1CCSC1)c1ccc(C(=O)Nc2ccncc2)cc1 (configuration not stated)
< 500 nM	NC(CC(=O)N1CCCCC1c1ccc(F)cc1)c1ccc(C(=O)Nc2ccncc2)cc1 (configuration not stated)
< 500 nM	NC(CC(=O)N1CCC(c2c[nH]c3ccccc23)CC1)c1ccc(C(=O)Nc2ccncc2)cc1 (configuration not stated)
< 500 nM	NC(CC(=O)N1CCCCC1c1ccccc1)c1ccc(C(=O)Nc2ccncc2)cc1 (configuration not stated)
< 500 nM	CS(=O)(=O)NCC(N)c1ccc(C(=O)Nc2ccncc2)cc1 (configuration not stated)
< 500 nM	NC(C(=O)N1CCOCC1)c1ccc(C(=O)Nc2ccncc2)cc1 (configuration not stated)
< 500 nM	NC(CC(=O)N1CCN(Cc2ccc(F)cc2)CC1)c1ccc(C(=O)Nc2ccncc2)cc1 (configuration not stated)
< 500 nM	NC(CC(=O)N1CCc2ccccc2C1)c1ccc(C(=O)Nc2ccncc2)cc1 (configuration not stated)
< 500 nM	Cc1ccc(S(=O)(=O)NCC(N)c2ccc(C(=O)Nc3ccncc3)cc2)cc1 (configuration not stated)
< 500 nM	NC(CC(=O)N1CCN(Cc2ccccc2F)CC1)c1ccc(C(=O)Nc2ccncc2)cc1 (configuration not stated)
< 500 nM	NC(CC(=O)N1CCCC1c1ccc(Cl)c(Cl)c1)c1ccc(C(=O)Nc2ccncc2)cc1 (configuration not stated)
< 500 nM	NC(C(=O)NCc1ccccc1)c1ccc(C(=O)Nc2ccncc2)cc1 (configuration not stated)
< 500 nM	N[C@H](CC(=O)N1CCC[C@@H]1c1cccc(F)c1)c1ccc(C(=O)Nc2ccncc2)cc1
< 500 nM	NC(CNS(=O)(=O)c1cccc2ccccc12)c1ccc(C(=O)Nc2ccncc2)cc1 (configuration not stated)
< 500 nM	NC(CC(=O)N1CCCC1c1cc(F)ccc1F)c1ccc(C(=O)Nc2ccncc2)cc1 (configuration not stated)
< 500 nM	CC1CCN(C(=O)C(N)c2ccc(C(=O)Nc3ccncc3)cc2)CC1 (configuration not stated)

Reference: the Kinase Knowledgebase extract (Sharma et al. 2016)
